Several values for one entry are separate records, joined by “and”; a condition that tells them apart may be missing. Identical values can stand only once. Entries after “also recorded” stand apart in the source; their conditions may differ.
How the values were obtained:
[1] = in vivo; cited from earlier work
hEPO expression in mice = assay: In vivo hEPO assay in mice injected with AAV8 vectors; parameters: species or system BALB/c cAJc1 mice
Procedure: For AAV production, 293T cells seeded in cellstack5 (Corning) were cotransfected using PEI MAX (Polysciences Inc) with 227.9 μg of the plasmid encoding AAV8 replication and capsid proteins, 455.8 μg of the plasmid encoding helper proteins and 227.9 μg of the pAAV-CMV-hEPO-a8c or -control. At 6 days after transfection, cells and supernatants were harvested, then filtered and concentrated by KrosFlo Research Ili (Spectrum Labs, Inc) for AAV purification by affinity chromatography using AKTA avant 25 (GE healthcare). Then, the virus solutions were ultracentrifuged and dialyzed. Titers of the AAV solutions were determined by quantitative PCR using the AAVpro Titration Kit (for Real-Time PCR) Ver.2 (Takara).
For in vivo animal experiments, 7-week-old male BALB/c cAJc1 mice (CLEA Japan Inc.) were intravenously injected with 200 μl of PBS (as the control group) or purified AAV8 particles (3.0×10^10 virus genome (vg) per mouse) carrying hEPO gene with or without the CPP-a8c-AC17-4 riboswitch. After 13 days from AAV injection, mice were subjected to 24 μl blood collection from tail vein and the blood samples were immediately diluted with 96 μl. At 24 h after the blood collection, the mice were orally administrated 100 mg kg^−1 of ASP7967 in 0.5% methyl cellulose (FUJIFILM Wako Pure Chemical Corp) or 0.5% methyl cellulose as the vehicle solution. At 2, 4, 6, 8 and 24 h after the ASP7967 administration, blood samples were collected as described above. The blood samples were incubated on ice, then centrifuged at 1,200×g for 15 min at 4° C. to collect serum samples. The serum samples were stored at −80° C. and used for measurement of serum hEPO concentration by ELISA.
Next, we studied the riboswitch potency and functionality in vivo. […] Mice were intravenously injected with viral vectors AAV8-CMV-hEPO-control, AAV8-CMV-hEPO-a8c-AC17-4-CPP, or saline (WT). Two weeks after AAV injection, 100 mg kg^−1 dose of ASP7967 was orally administered to induce expression from the riboswitch-regulated vector. Blood was drawn before and at multiple time points after the oral administration (FIG. 9c). Secreted hEPO levels in the serum of the mice injected with the control AAV (AAV8-CMV-hEPO-control) were around 550 mIU ml^−1, and administration of 100 mg kg^−1 dose of the ligand had no effect during the observed time period (FIG. 9d, upper right). On the other hand, upon administration of 100 mg kg^−1 dose of the ligand, hEPO secretion levels were induced by riboswitch-regulated vector (AAV8-CMV-hEPO-a8c-AC17-4-CPP) reaching approximately 115 mIU mL-1 at 6-8 h postdosing, corresponding to a 7.2-fold increase over the mice dosed with the vehicle (FIG. 9d, lower left).

[2] = tested on: hEPO secretion from HEK293 cells; assay: In vitro hEPO assay (ELISA), AAV vector plasmids in HEK293 cells; format: cell-based, human
Procedure: For the hEPO ELISA assay in FIG. 9b, HEK293 cells were trypsinized and diluted to 2.0×10^5 cells ml^−1 and 100 μl per well were seeded onto a 96-well collagen plate. Cells in each well were transfected with 100 ng of the pAAV-CMV-hEPO-p3-d pAAV-CMV-hEPO-control, pAAV-MCS-based plasmids encoding human EPO with or without CPP-a8c-AC17-4 riboswitch using 0.3 μl of TransIT-293 Transfection Reagent according to the manufacturer's instructions. The medium in each well was replaced with fresh medium with (up to 10 μM) or without ASP7967 5 h after transfection. At 24 h after transfection, the medium in each well was collected and stored at −20° C. To measure hEPO concentrations, the medium was diluted 50-fold by PBS and further diluted 50-fold by the specimen diluent buffer included in the ELISA kit. The diluted samples were measured using Human Erythropoietin/EPO Quantikine ELISA Kit (R&D systems, Inc.) and Infinite M200 PRO microplate reader (TECAN).
Then, a8c-AC17-4-CPP was inserted into the 3′ UTR region of hEPO gene expressed from the CMV promoter in a plasmid containing AAV2 inverted terminal repeats (ITR) (pAAV-CMV-hEPO-a8c-AC17-4-CPP) (FIG. 9a). The plasmid pAAV-CMV-hEPO-a8c-AC17-4-CPP was transfected into HEK293 cells in the absence or presence (0.1~10 μM) of ASP7967. Two days after transfection, hEPO concentrations in the culture medium were measured by ELISA. […]

Structure (SMILES) | antipsychotic activities [1] | hEPO secretion level (serum) (hEPO expression in mice; 100 mg kg^−1 oral, 6-8 h postdosing, AAV8-CMV-hEPO-a8c-AC17-4-CPP) | increase of serum hEPO over vehicle (hEPO expression in mice; 100 mg kg^−1 oral, AAV8-CMV-hEPO-a8c-AC17-4-CPP) | effect of ligand on serum hEPO in mice injected with control AAV (hEPO expression in mice; 100 mg kg^−1 oral, AAV8-CMV-hEPO-control) | serum hEPO / transgene expression as ligand concentration declines (hEPO expression in mice; 100 mg kg^−1 oral, after 6-8 h) | hEPO after readministration of the ligand (hEPO expression in mice; readministration, data not shown) | hEPO level in medium relative to control plasmid ([2]; 10 μM ASP7967, pAAV-CMV-hEPO-a8c-AC17-4-CPP) | fold induction at 10 µM ([2]; Homo sapiens, HEK293, 24 h, read-out: induction of hEPO)
Fc1ccc(Nc2nc(NCc3ncccn3)nc(Nc3ccccc3)n2)cc1 [ASP2905, reference compound] | has antipsychotic activities | – | – | – | – | – | – | –
Fc1ccc(Nc2nc(NCc3ncccn3)nc(Nc3ccc(F)cc3)n2)cc1 [ASP7967] | – | approximately 115 mIU mL-1 | 7.2 fold and ~ 7.2 fold | no effect | subsequently decreased; also recorded: diminished as the ligand concentration in the target tissue declined | reactivation of hEPO | 29% | 10

Source: patent publication US20260327628A1, “AN RNA APTAMER THAT BINDS TO ASP7967 OR AN ANALOGUE THEREOF” (priority 2022, published 2026)
